The structures appear in SMILES notation.

T1 sequence (P43220 24-463): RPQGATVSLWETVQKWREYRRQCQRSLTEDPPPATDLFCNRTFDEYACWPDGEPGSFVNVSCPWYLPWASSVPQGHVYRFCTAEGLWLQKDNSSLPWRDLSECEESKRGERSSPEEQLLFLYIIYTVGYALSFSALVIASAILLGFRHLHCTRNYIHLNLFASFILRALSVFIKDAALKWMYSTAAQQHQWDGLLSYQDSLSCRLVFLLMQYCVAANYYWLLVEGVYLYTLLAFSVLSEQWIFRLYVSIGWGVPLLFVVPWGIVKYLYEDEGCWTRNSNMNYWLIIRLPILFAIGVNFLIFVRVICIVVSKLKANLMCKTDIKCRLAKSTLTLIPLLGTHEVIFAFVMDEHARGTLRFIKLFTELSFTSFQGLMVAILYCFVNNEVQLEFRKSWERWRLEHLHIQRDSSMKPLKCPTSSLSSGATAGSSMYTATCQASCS

The first test concerns the target T1, human GLP1R (Homo sapiens, UniProt P43220).
T1 construct: expressed in transfected cells; host or cells: CHO cells (ATCC), transient transfection with pCMV-human GLP1R
Put plainly: Human GLP-1 receptor transfected cell assay (MRE/CRE-luciferase reporter gene, agonist activity). It counts as cell-based. The settings on record: 6 h; conc. 10 μM; percentage of the activity of the control; read-out: Agonist Activity. The method in brief:
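CHO cells transiently co-transfected with human GLP1R and MRE/CRE-driven luciferase reporter plasmids. Compound or GLP-1 (7-36 amide) standard dilution series added for 6 h at 37 °C, 5% CO2. Agonist activity read as Bright-Glo luciferase luminescence.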
(In general: A reporter such as luciferase makes a cellular process visible.)
Turning to `CC(C)c1ccc(S(=O)(=O)NC(Cc2ccc(-c3noc(-c4ccc(NC(=O)OC(C)(C)C)cc4)n3)c(F)c2)C(=O)O)cc1` (stereo not shown) [Compound 11C], the activation at 10 µM lay within 20 to 40%.
For `Cc1ccc(CNC(=O)C(Cc2ccc(OC(=O)c3ccc(NC(=O)OC(C)(C)C)cc3)c(F)c2)c2nnn[nH]2)cc1` (stereo not shown) [Compound 11D], the activation at 10 µM fell in the range of 20 to 40%.
The same measure, in the same setting: the figure for `Cc1ccc(S(=O)(=O)NC(Cc2ccc(-c3noc(-c4ccc(NC(=O)OC(C)(C)C)cc4)n3)c(F)c2)C(=O)O)cc1Cl` (stereo not shown) [Compound 11F] is 40 to 60%; for `CC(C)(C)OC(=O)Nc1ccc(-c2nc(-c3ccc(CC(NC(=O)c4ccc(-c5ccc([N+](=O)[O-])cc5)o4)C(=O)O)cc3F)no2)cc1` (stereo not shown) [Compound 11G] it is over 60%; for `CC(C)(C)OC(=O)Nc1ccc(-c2nc(-c3ccc(CC(NS(=O)(=O)c4ccc([N+](=O)[O-])cc4)C(=O)O)cc3F)no2)cc1` (stereo not shown) [Compound 11H] it is 40 to 60%.
Same read-out and setting: with `Cc1cc(C)c(S(=O)(=O)NC(Cc2ccc(-c3noc(-c4ccc(NC(=O)OC(C)(C)C)cc4)n3)c(F)c2)C(=O)O)c(C)c1` (stereo not shown) [Compound 11I] the figure was 40 to 60%; with `CC(C)(C)OC(=O)Nc1ccc(-c2nc(-c3ccc(CC(NS(=O)(=O)c4cccc5cccnc45)C(=O)O)cc3F)no2)cc1` (stereo not shown) [Compound 11J], over 60%.
Still for that read-out and setting: with `CC(C)(C)OC(=O)Nc1ccc(-c2nc(-c3ccc(CC(NS(=O)(=O)c4ccc(-c5ccccc5)cc4)C(=O)O)cc3F)no2)cc1` (stereo not shown) [Compound 11K] the figure was over 60%; with `CC(C)(C)OC(=O)Nc1ccc(-c2nc(-c3ccc(CC(NS(=O)(=O)c4ccc(OC(F)(F)F)cc4)C(=O)O)cc3F)no2)cc1` (stereo not shown) [Compound 11L], 20 to 40%.
In the case of `CC(C)(C)OC(=O)Nc1ccc(-c2nc(-c3ccc(CC(NS(=O)(=O)c4ccc(C(F)(F)F)cc4[N+](=O)[O-])C(=O)O)cc3F)no2)cc1` (stereo not shown) [Compound 11M], the activation at 10 µM is over 60%.
The same measure, in the same setting: with `Cc1ccc(-c2cccc(C(=O)NC(Cc3ccc(-c4noc(-c5ccc(NC(=O)OC(C)(C)C)cc5)n4)c(F)c3)C(=O)O)c2)cc1` (stereo not shown) [Compound 11N] the figure was over 60%; with `CC(C)(C)OC(=O)Nc1ccc(-c2nc(-c3ccc(CC(NC(=O)c4ccc(-c5ccc(C(F)(F)F)cc5)o4)C(=O)O)cc3F)no2)cc1` (stereo not shown) [Compound 11O], over 60%; with `CC(C)(C)OC(=O)Nc1ccc(-c2nc(-c3ccc(CC(NC(=O)c4ccc(-c5ccc(F)cc5)s4)C(=O)O)cc3F)no2)cc1` (stereo not shown) [Compound 11P], 20 to 40%.
The same measure, in the same setting: with `Cc1ccc(CN2CCN(C(=O)NC(Cc3ccc(-c4noc(-c5ccc(NC(=O)OC(C)(C)C)cc5)n4)c(F)c3)C(=O)O)CC2)cc1` (stereo not shown) [Compound 11Q] the figure was over 60%; with `CC(C)(C)OC(=O)Nc1ccc(-c2nc(-c3ccc(CC(NC(=O)C4CCN(C(=O)OC(C)(C)C)CC4)C(=O)O)cc3F)no2)cc1` (stereo not shown) [Compound 11R], over 60%; with `CC(C)(C)OC(=O)Nc1ccc(-c2nc(-c3ccc(CC(NC(=O)Nc4cc(-c5ccccc5)n[nH]4)C(=O)O)cc3F)no2)cc1` (stereo not shown) [Compound 11S], over 60%.
Same read-out and setting: the figure for `CC(C)(C)OC(=O)Nc1ccc(-c2nc(-c3ccc(CC(NC(=O)CN4CCN(C(=O)OC(C)(C)C)CC4)C(=O)O)cc3F)no2)cc1` (stereo not shown) [Compound 11T] is 40 to 60%; for `CN1CCN(c2ccc(C(=O)NC(Cc3ccc(-c4noc(-c5ccc(NC(=O)OC(C)(C)C)cc5)n4)c(F)c3)C(=O)O)o2)CC1` (stereo not shown) [Compound 11U] it is 20 to 40%.
As for `CC(C)(C)OC(=O)Nc1ccc(-c2nc(-c3ccc(CC(NC(=O)c4cn(-c5ccc(C(C)(C)C)cc5)nn4)C(=O)O)cc3F)no2)cc1` (stereo not shown) [Compound 11V], the activation at 10 µM was over 60%.
On the same count and under the same terms, the figure for `CC(C)(C)OC(=O)Nc1ccc(-c2nc(-c3ccc(CC(NS(=O)(=O)N4CCN(C(=O)OC(C)(C)C)CC4)C(=O)O)cc3F)no2)cc1` (stereo not shown) [Compound 11W] is 40 to 60%; for `CC(C)(C)OC(=O)Nc1ccc(-c2nc(-c3ccc(CC(NS(=O)(=O)N4CCN(c5ccccc5)CC4)C(=O)O)cc3F)no2)cc1` (stereo not shown) [Compound 11X] it is over 60%; for `CC(C)(C)OC(=O)Nc1ccc(-c2nc(-c3ccc(CC(NC(=O)c4cccc(N5CCCCC5)c4)C(=O)O)cc3F)no2)cc1` (stereo not shown) [Compound 11Y] it is 20 to 40%.
Same read-out and setting: the figure for `CC(C)(C)OC(=O)Nc1ccc(-c2nc(-c3ccc(CC(NS(=O)(=O)NCc4ccccc4)C(=O)O)cc3F)no2)cc1` (stereo not shown) [Compound 11Z] is 40 to 60%; for `CC(C)(C)OC(=O)Nc1ccc(-c2nc(-c3ccc(CC(NC(=O)N4CCN(c5ccc(C(F)(F)F)cc5)CC4)C(=O)O)cc3F)no2)cc1` (stereo not shown) [Compound 12A] it is over 60%.
The same measure, in the same setting: the figure for `CC(C)(C)OC(=O)Nc1ccc(-c2nc(-c3ccc(CC(NC(=O)N4CCN(c5cccc(Cl)c5)CC4)C(=O)O)cc3F)no2)cc1` (stereo not shown) [Compound 12C] is over 60%; for `CC(C)(C)OC(=O)Nc1ccc(-c2nc(-c3ccc(CC(NC(=O)N4CCN(c5ccccc5C#N)CC4)C(=O)O)cc3F)no2)cc1` (stereo not shown) [Compound 12D] it is over 60%.

Staying with this test, now noted: 6 h; concentration 1 μM; read-out: Activity (agonist), percentage of the activity of the control.
For the molecule `Cc1ccc(-c2cccc(C(=O)N[C@H](Cc3ccc(-c4noc(-c5ccc(NC(=O)OC(C)(C)C)cc5)n4)c(F)c3)C(=O)O)c2)cc1F` [Compound 6L], the activation at 1 µM is 20 to 40%.
As to `CC(C)Oc1ccc(-c2ccc(C(=O)N[C@H](Cc3ccc(-c4noc(-c5ccc(NC(=O)OC(C)(C)C)cc5)n4)c(F)c3)C(=O)O)o2)cc1F` [Compound 6O], the activation at 1 µM lay within 20 to 40%.
`CC(C)(C)OC(=O)Nc1ccc(-c2nc(-c3ccc(C[C@@H](NC(=O)c4cccc(-c5ccccc5F)c4)C(=O)O)cc3F)no2)cc1` [Compound 6P]: the activation at 1 µM was in the range of 40 to 60%.
Same read-out and setting: the figure for `Cc1ccc(-c2ccc(C(=O)N[C@H](Cc3ccc(-c4noc(-c5ccc(NC(=O)OC(C)(C)C)cc5)n4)cn3)C(=O)O)o2)cc1` [Compound 6Q] is 40 to 60%; for `Cc1ccc(-c2ccc(C(=O)N[C@H](Cc3ccc(-c4noc(-c5ccc(NC(=O)OC(C)(C)C)cc5)n4)c(C)c3)C(=O)O)o2)cc1` [Compound 6R] it is over 60%.
Same read-out and setting: with `Cc1cc(C[C@@H](NC(=O)c2ccc(-c3ccc(Cl)cc3F)o2)C(=O)O)ccc1-c1noc(-c2ccc(NC(=O)OC(C)(C)C)cc2)n1` [Compound 6S] the figure was 20 to 40%; with `CC(C)(C)OC(=O)Nc1ccc(-c2nc(-c3ccc(C[C@@H](NC(=O)c4cccc(C#CC5CC5)c4)C(=O)O)cc3F)no2)cc1` [Compound 6T], 20 to 40%.
On the same count and under the same terms, with `CC(C)c1ccc(-c2ccc(C(=O)N[C@H](Cc3ccc(F)c(-c4noc(-c5ccc(NC(=O)OC(C)(C)C)cc5)n4)c3)C(=O)O)o2)cc1` [Compound 6V] the figure was 20 to 40%.
For the molecule `Cc1ccc(-c2ccc(C(=O)N[C@H](Cc3cc(Br)cc(-c4noc(-c5ccc(NC(=O)OC(C)(C)C)cc5)n4)c3)C(=O)O)o2)cc1` [Compound 6Y], the activation at 1 µM was over 60%.
The same measure, in the same setting: the figure for `Cc1ccc(-c2ccc(C(=O)N[C@H](Cc3ccc(C)c(-c4noc(-c5ccc(NC(=O)OC(C)(C)C)cc5)n4)c3)C(=O)O)o2)cc1` [Compound 6Z] is 40 to 60%; for `Cc1ccc(-c2ccc(C(=O)NC(Cc3cc(F)cc(C#Cc4ccc(NC(=O)OC(C)(C)C)cc4)c3)C(=O)O)o2)cc1` (stereo not shown) [Compound 7E] it is over 60%.
For the molecule `Cc1cc(-c2ccc(C(=O)N[C@H](Cc3ccc(-c4noc(-c5ccc(NC(=O)OC(C)(C)C)cc5)n4)c(F)c3)C(=O)O)o2)ccc1F` [Compound 9E], the activation at 1 µM is over 60%.
The same measure, in the same setting: the figure for `Cc1cc(-c2ccc(C(=O)N[C@@H](Cc3ccc(-c4noc(-c5ccc(NC(=O)OC(C)(C)C)cc5)n4)c(F)c3)C(=O)O)o2)ccc1F` [Compound 10E] is over 60%.

Still in this test, the particulars now being: 6 h; concentration 3 μM; read-out: Activity (agonist), percentage of the activity of the control.
On to `Cc1ccc(-c2cccc(C(=O)N[C@H](Cc3ccc(-c4noc(-c5ccc(NC(=O)OC(C)(C)C)cc5)n4)c(F)c3)C(=O)O)c2)o1` [Compound 6I], for which the activation at 3 µM was in the range of 20 to 40%.
Still for that read-out and setting: the figure for `CC(C)Oc1ccc(-c2ccc(C(=O)N[C@H](Cc3ccc(-c4noc(-c5ccc(NC(=O)OC(C)(C)C)cc5)n4)c(F)c3)C(=O)O)o2)cc1` [Compound 6N] is 40 to 60%.
On the same count and under the same terms, the figure for `Cc1csc(-c2cccc(C(=O)N[C@H](Cc3ccc(-c4noc(-c5ccc(NC(=O)OC(C)(C)C)cc5)n4)c(F)c3)C(=O)O)c2)c1` [Compound 6U] is 40 to 60%.
The same measure, in the same setting: with `COc1ccc(C[C@@H](NC(=O)c2ccc(-c3ccc(C)cc3)o2)C(=O)O)cc1-c1noc(-c2ccc(NC(=O)OC(C)(C)C)cc2)n1` [Compound 6W] the figure was 20 to 40%; with `Cc1ccc(-c2ccc(C(=O)N[C@H](Cc3cc(F)cc(-c4noc(-c5ccc(NC(=O)OC(C)(C)C)cc5)n4)c3)C(=O)O)o2)cc1` [Compound 6X], 40 to 60%.
Take `Cc1ccc(-c2cccc(C(=O)N[C@@H](Cc3ccc(-c4noc(-c5ccc(NC(=O)OC(C)(C)C)cc5)n4)c(F)c3)C(=O)O)c2)cc1` [Compound 8E]: the activation at 3 µM is over 60%.

Staying with this test, now noted: 6 h; concentration 3.16 μM; read-out: Activity (agonist), percentage of the activity of the control.
`Cc1ccc(-c2ccc(C(=O)N[C@H](Cc3ccc(-c4noc(-c5ccc(NC(=O)OC(C)(C)C)cc5)n4)c(F)c3)C(=O)O)o2)cc1` [Compound 11E]: the activation at 3.16 µM is over 60%.

Staying with this test, now noted: 6 h; concentration 10 μM; read-out: Activity (agonist), percentage of the activity of the control.
As for `Cc1ccc(-c2cccc(C(=O)N[C@H](Cc3ccc(-c4noc(-c5ccc(NC(=O)OC(C)(C)C)cc5)n4)c(F)c3)C(=O)O)c2)s1` [Compound 6J], the activation at 10 µM was over 60%.
On to `CC(C)Oc1ccc(-c2cccc(C(=O)N[C@H](Cc3ccc(-c4noc(-c5ccc(NC(=O)OC(C)(C)C)cc5)n4)c(F)c3)C(=O)O)c2)cc1` [Compound 6K], for which the activation at 10 µM was over 60%.
Still for that read-out and setting: the figure for `COc1ccc(C#CC(=O)N[C@H](Cc2ccc(-c3noc(-c4ccc(NC(=O)OC(C)(C)C)cc4)n3)c(F)c2)C(=O)O)cc1` [Compound 6M] is 20 to 40%.
